Three compounds from patent US20120263739A1, “ANTI INTEGRIN ANTIBODIES LINKED TO NANOPARTICLES LOADED WITH CHEMOTHERAPEUTIC AGENTS” (MERCK PATENT GMBH, priority 2009, published 2012) can be followed below.

For assay [1], the target named is alpha-v beta-3 integrin on M21 melanoma cells (UniProt P06756). Briefly: cell-based or functional assay.
Assay [2] concerns M21 cells. Briefly: Cellular uptake and intracellular distribution, confocal laser scanning microscopy. It is filed as cell-based. The note with it: 10 ng/μl, 4 h at 37° C., CLSM. The protocol: Cellular uptake and intracellular distribution: The cellular uptake and intracellular distribution of these nanoparticulate formulations are shown by confocal laser scanning microscopy (CLSM). αvβ3 integrin-positive M21 melanoma cells are incubated with NP-Dox-DI17E6, with NP-Dox-IgG, or free Doxorubicin (FIG. 5). […] The overlay of the different fluorescence channels (FIG. 6B-D) verifies the intracellular uptake of NP-Dox-DI17E6 (FIG. 6A).
FIG. 5: Cellular uptake and intracellular distribution of nanoparticles studied by confocal laser scanning microscopy (CLSM). M21 cells were cultured on glass slides and treated with 10 ng/μl of the different nanoparticle formulations (referred to DI17E6 concentration or equivalent amount of control nanoparticles) for 4 h at 37° C. The green autofluorescence of the nanoparticles was used for detection and the red autofluorescence of doxorubicin. The cell membranes were stained with Concanavalin A AlexaFluor 350 (blue). Pictures were taken within inner sections of the cells. […]
Cellular uptake and intracellular distribution of the nanoparticles were studied by confocal laser scanning microscopy. […] (concentrations are calculated referred to DI17E6 or equivalent NP amounts as described in 2.5). […] Nanoparticles were detected at 488/520 nm. Doxorubicin was detected by red fluorescence at 488/590 nm.

Assay [3] has as its system αv-negative M21L cells. Kind of assay: MTT cell viability assay.
Method: (§1) Cell viability was assessed using the 3-(4,5-dimethylthiazol-2-yl)-2,5-diphenyltetrazolium bromide (MTT) dye reduction assay [27] modified as described before [28].
The test system of assay [4] is αvβ3 positive melanoma cells M21 on vitronectin. Kind of assay: Kinetic of cell detachment, transmitted light time lapse microscopy. It is filed as cell-based. The settings on record: total incubation time 1-2 d.
Method: A parallel detachment kinetic study of the different nanoparticulate formulations or free doxorubicin confirms the cell detachment assay. In this study detachment is observed by transmitted light time lapse microscopy over a period of 1-2 d. Pictures were done every 7 minutes. The detachment time of the cells is measured.
For the determination of cell detachment kinetics, cells were seeded in a vitronectin coated multiwell chamber and incubated with the different nanoparticulate formulations or free doxorubicin in a humidified, CO2-aerated climate chamber at 37° C. Detachment was observed by transmitted light time lapse microscopy over a period of 1-2 d. Pictures were done every 7 minutes. The detachment of the cells was analyzed by manual evaluation of the data.
The subject of assay [5] is αvβ3-positive M21 melanoma cells. Briefly: MTT cell viability assay. (Formazan colour is commonly taken as a measure of viable cells.)
Method: as §1
Assay [6] deals with αvβ3 integrin positive melanoma cells M21. Briefly: Cell attachment on vitronectin coated surface. It is filed as cell-based. The settings on record: 2 ng/μl, 1 h. The protocol:
FIG. 8: Cell attachment on vitronectin coated surface. 2 ng/μl of free DI17E6 or the different nanoparticulate formulations were incubated together with the αvβ3 integrin positive melanoma cells M21 on vitronectin coated ELISA plates (concentrations are calculated referred to DI17E6 or equivalent NP amounts). After 1 h of incubation non-adherent cells were removed. Remaining attached cells were stained with CyQUANT GR and counted against untreated control as described in the manufacturer's instructions manual. (Internal control of each experiment n=10, one representative experiment out of 3 independent experiments is shown.)
αvβ3 integrin positive melanoma cells M21 were grown on vitronectin (MoBiTec, Göttingen, Germany) coated ELISA plates (Nunc, Wiesbaden, Germany). Therefore, ELISA 96-well plates were coated with 1 μg/ml vitronectin for 1 h at 37° C. Plates were blocked with 1% heat inactivated BSA (PAA, Cölbe, Germany) and incubated with either 2 ng/μl of free DI17E6 or the different nanoparticulate formulations (referred to free mAb) together with the cells in cell adhesion medium (RPMI 1640 with 2 mM L-glutamine supplemented with 1% BSA). […] Remaining attached cells were stained with CyQUANT GR (Invitrogen, Karlsruhe) and counted against untreated control in a microtiter ELISA reader as described in the manufacturer instructions manual.

For assay [7] the test system is unchanged. Briefly: Cell detachment from vitronectin coated surface. The settings on record: 4 ng/μl, 4 h at 37° C. The class given is cell-based. The protocol: FIG. 9: Cell detachment from vitronectin coated surface. For cell detachment assay, 96-well ELISA plates were coated with vitronectin and cells were allowed to attach and spread for 1 h. Then, 4 ng/μl of free DI17E6 or the different unloaded or doxorubicin nanoparticulate formulations were added and the plates were incubated for additional 4 h at 37° C. to induce detachment (concentrations are calculated referred to DI17E6 or equivalent NP amounts). Detached cells were removed and remaining attached cells were stained with CyQUANT GR and counted against untreated control as described in the manufacturer's instructions manual. (Internal control of each experiment n=10, one representative experiment out of 9 independent experiments is shown.)
For cell detachment assays, 96-well ELISA plates were coated with vitronectin as described above. After blocking, cells were allowed to attach and spread for 1 h in cell adhesion medium. Then, 4 ng/μl or 10 ng/μl of either free DI17E6 or the different nanoparticulate formulations (referred to free mAb) were added and the plates were incubated for additional 4 h at 37° C. to induce detachment. Subsequently, plates were washed and processed as for cell adhesion assay. Specific inhibition of attachment or induction of detachment were determined relative to vitronectin-coated surfaces blocked with BSA.

Converted amounts (≈) assume the structure as drawn.

alpha-v beta-3 integrin on M21 melanoma cells, sequence (P06756 31-1048, chain 1 of 2): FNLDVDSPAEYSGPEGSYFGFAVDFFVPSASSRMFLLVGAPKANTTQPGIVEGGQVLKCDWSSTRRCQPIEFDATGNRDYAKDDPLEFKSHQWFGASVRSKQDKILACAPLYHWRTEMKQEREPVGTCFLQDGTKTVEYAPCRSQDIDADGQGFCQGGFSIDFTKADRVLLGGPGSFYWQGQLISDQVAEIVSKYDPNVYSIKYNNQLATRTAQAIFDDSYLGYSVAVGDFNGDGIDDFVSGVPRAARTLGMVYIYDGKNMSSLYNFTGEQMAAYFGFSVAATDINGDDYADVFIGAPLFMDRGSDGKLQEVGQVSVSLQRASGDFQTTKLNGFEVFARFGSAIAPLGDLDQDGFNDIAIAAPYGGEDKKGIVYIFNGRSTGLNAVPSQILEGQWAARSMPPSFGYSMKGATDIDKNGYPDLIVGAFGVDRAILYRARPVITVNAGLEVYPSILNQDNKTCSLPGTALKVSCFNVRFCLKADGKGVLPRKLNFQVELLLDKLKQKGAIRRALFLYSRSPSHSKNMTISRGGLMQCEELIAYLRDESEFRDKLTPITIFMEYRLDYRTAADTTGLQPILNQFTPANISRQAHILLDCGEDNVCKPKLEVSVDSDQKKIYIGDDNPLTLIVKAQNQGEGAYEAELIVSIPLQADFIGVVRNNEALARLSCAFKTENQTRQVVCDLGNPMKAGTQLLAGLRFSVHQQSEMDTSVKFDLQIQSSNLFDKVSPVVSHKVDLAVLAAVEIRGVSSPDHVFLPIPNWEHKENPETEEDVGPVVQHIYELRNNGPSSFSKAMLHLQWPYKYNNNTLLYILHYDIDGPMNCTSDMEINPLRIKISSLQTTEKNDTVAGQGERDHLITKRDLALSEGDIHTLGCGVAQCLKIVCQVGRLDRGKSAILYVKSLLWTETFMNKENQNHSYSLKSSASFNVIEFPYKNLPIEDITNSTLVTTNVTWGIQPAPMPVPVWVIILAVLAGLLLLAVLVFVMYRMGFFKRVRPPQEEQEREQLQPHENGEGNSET
alpha-v beta-3 integrin on M21 melanoma cells, sequence (P05106 27-788, chain 2 of 2, further chain): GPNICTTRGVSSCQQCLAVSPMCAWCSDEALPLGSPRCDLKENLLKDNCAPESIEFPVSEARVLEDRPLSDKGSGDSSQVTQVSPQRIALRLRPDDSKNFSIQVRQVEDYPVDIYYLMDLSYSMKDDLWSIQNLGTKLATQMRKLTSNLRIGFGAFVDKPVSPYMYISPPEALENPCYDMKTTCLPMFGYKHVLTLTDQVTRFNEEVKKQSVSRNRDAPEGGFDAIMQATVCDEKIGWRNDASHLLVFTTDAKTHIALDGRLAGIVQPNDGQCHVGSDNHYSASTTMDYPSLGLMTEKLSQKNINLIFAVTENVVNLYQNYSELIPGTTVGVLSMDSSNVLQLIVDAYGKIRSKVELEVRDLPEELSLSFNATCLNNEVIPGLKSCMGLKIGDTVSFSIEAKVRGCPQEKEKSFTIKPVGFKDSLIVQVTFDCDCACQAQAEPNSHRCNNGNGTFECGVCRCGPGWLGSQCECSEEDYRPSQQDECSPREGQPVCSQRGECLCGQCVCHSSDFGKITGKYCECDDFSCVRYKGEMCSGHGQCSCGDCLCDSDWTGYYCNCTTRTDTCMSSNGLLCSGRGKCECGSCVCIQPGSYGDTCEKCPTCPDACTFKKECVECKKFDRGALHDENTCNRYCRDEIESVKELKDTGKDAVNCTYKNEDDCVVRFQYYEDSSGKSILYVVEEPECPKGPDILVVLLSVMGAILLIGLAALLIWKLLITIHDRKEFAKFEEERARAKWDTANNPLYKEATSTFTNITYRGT

Take “NP-Dox-DI17E6 (doxorubicin-loaded HSA nanoparticles with DI17E6 covalently coupled on the surface)”: the IC-50 of MTT cell viability assay on M21 cells (referred to doxorubicin) in assay [1] stood at 8 ng/mL.

In the case of `COc1cccc2c1C(=O)c1c(O)c3c(c(O)c1C2=O)C[C@@](O)(C(=O)CO)C[C@@H]3O[C@H]1C[C@H](N)[C@H](O)[C@H](C)O1` [free doxorubicin, doxorubicin, reference compound], the “Cellular uptake and intracellular distribution” value in assay [2] was “Red doxorubicin fluorescence can be detected”. Further, the IC50 in assay [3] (read-out: IC-50 M21L) amounted to 0.0707 ± 0.0008 mg/L (≈ 0.13 µM); in assay [5] (Homo sapiens, M21, read-out: IC-50 M21), 0.0575 ± 0.0037 mg/L (≈ 0.106 µM). In addition, the “Cell death [h after incubation]” value in assay [4] worked out at 17 h.

“free DI17E6: deimmunized version of monoclonal mouse antibody 17E6, directed against αv integrins (SEQ ID No. 1 and 2)”: in assay [6], the “Inhibition of cell attachment to vitronectin coated surfaces” value is recorded as “inhibits the attachment of the M21 cells to vitronectin coated surfaces”. Also, in assay [3] (MTT, reduce cell viability by 50%, M21L cells), the “IC-50 M21L” value is above 100 ng/mL. In addition, the “Cell detachment from vitronectin coated surfaces” value in assay [7] is given as “cell detachment of αvβ3 positive melanoma cells M21 from vitronectin coated surfaces is also possible”. Moreover, in assay [5] (MTT, reduce cell viability by 50%, M21 cells), the “IC-50 M21” value was above 100 ng/mL.
